We go through one compound from PubChem BioAssay AID492957 (The Scripps Research Institute Molecular Screening Center, 2010).

SMILES strings stand for the structures. Calls of active or inactive are those of the source.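 How the source made its calls: active means IC50 at or below 10 µM; inactive means IC50 above 10 µM.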

In the experiment the test system is E. coli V66 + T4 gene 2 mutant phage, OD growth. Nature of the experiment: E. coli RecBCD inhibitors, dose response, counter-screen for AddAB inhibitor project, absorbance, V66 E. coli, mutant T4 phage (AID 492957). Background: The purpose of a counterscreen is to sort out artefacts and off-target activity.

By IC50 is commonly meant the concentration at which inhibition is half-maximal. With `O=C(NCc1cccnc1)c1ccc([N+](=O)[O-])o1`, the IC50 is 86.4 µM (inactive).
